Legend:
[1] = Adverse effects of 5-FC injections in mice; assay type: in vivo, NOD/Scid mice; settings: 400 mg/kg, day 5 through 19, control mice injected with saline
Method: In order to determine whether genetically engineered CEM cells could be effectively eradicated in vivo, NOD/Scid mice were utilized. After being exposed to 150 rads of radiation on day 1, four groups of mice were injected with saline (control) or 5×10^6 engineered cells on day 2. The remaining three groups included non-CD containing group (LNGFRSN), E. coli fusion construct containing group (LNGCDeSN) and the Saccharomyces fusion construct-containing group (LNGCDsSN). The genetically engineered cells were suspended in PBS at a 5×10^6 cells/0.5 ml and injected via the tail vein. Commencing day 5 though day 19, the mice were injected with 5-FC (Sigma, cat no. F-7129, lot no. 110K4012) at 400 mg/kg using a stock solution of 12.5 mg/ml, prepared in normal saline. After two weeks of 5-FC treatment, the mice were followed to assess mortality within each group. A Kaplan Meyer analysis was performed to determine the effect of 5-FC treatment for each group. The experiment was continued for 100 days after initiation.
As expected, control mice injected with saline survived the duration of the experiment. […] This group serves as a second control against mice injected with CD containing fusion constructs. […]

[2] = system: NIH 3T3 and CEM cells; assay: MTS cytotoxicity assay of transduced cells in 5-FC; assay type: cell-based, murine fibroblasts (NIH 3T3); human T cells (CEM); settings: untransduced NIH 3T3 and CEM cells
Method: CD function was tested by cytotoxicity assays in which transduced cells are exposed to various concentrations of 5-FC in 96 well plates. Assays were initiated using 500 cells/well of NIH cells or 10,000 cells/well of CEM cells placed in culture with semi-log increasing concentrations of 5-FC for a period of 5 days. An MTS (Promega, Cell Titre 96; cat no. G5430, GI 11) colorimetric assay (based on the conversion of a tetrazolium dye to formazan) was utilized to quantitate the concentration of viable cells on day 5. The absorbance of UV light at a wavelength of 565 nm at a given concentration of 5-FC was used to calculate the LD50 using a μQuant plate reader (Bio Tek Instruments Inc.). The fusion constructs were tested alongside controls containing only the NGFR and the CD constructs.
We tested to determine if the CD construct remained functional in the fusion protein. Cells were incubated with varying concentrations of 5-FC in 96-well plates. After 5 days, MTS reagent was added as per manufacturers recommendations. The reaction involves a color change based on the number of viable cells as the tetrazolium dye changes to formazan. Absorption of UV light at 565 nm can then be used to assess viability (shown in FIG. 3 as percentage of viable cells). Untransduced cells are resistant to the effects of 5-FC. […]

Nc1nc(=O)[nH]cc1F [5-FC, 5-fluorocytosine]
adverse effects of 5-FC injections [1]: No adverse effects
effect of 5-FC on untransduced cells [2]: resistant

From US20030121068A1, “Vector encoding suicide and marker constructs” (priority 2001, published 2003)
